Among the data in US11407737B2, “Inhibitors of RAF kinases” (Kinnate Biopharma Inc., priority 2020, dated 2022) are IC50 values, retold here.

pIC50: −log10 of the molar value.

The target in the first assay is human RAF1 (Homo sapiens (Human), UniProt P04049). Kind of assay: Protein kinase assay (radiometric 33P-ATP, MEK1 (K97R) substrate), RAF-1. The format is biochemical.
Chain of human RAF1 (P04049 whole entry): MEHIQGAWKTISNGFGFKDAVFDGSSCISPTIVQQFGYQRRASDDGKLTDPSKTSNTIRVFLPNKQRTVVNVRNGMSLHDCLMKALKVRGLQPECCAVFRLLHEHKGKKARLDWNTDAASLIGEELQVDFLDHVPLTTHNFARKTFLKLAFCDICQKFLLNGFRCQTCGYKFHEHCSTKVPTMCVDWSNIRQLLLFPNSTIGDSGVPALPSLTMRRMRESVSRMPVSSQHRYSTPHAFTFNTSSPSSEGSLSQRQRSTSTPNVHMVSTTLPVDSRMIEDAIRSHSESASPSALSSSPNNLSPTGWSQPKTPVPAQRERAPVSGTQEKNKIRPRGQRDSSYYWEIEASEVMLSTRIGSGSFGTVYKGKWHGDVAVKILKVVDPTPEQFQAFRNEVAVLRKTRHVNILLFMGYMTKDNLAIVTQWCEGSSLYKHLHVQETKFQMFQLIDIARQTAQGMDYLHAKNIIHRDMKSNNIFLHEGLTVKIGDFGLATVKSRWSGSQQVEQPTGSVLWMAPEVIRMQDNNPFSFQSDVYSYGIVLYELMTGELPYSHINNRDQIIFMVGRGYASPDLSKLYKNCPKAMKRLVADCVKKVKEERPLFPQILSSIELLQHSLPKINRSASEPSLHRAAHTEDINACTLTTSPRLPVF
Details: not given
Here is the method:
Example 1: Kinase Assay Protocol
Assay platform was used to measure kinase/inhibitor interactions as described previously (Anastassiadis et al., 2011). In brief, for each reaction, kinase and substrate were mixed in a buffer containing 20 mM HEPES (pH 7.5), 10 mM MgCl2, 1 mM EGTA, 0.02% Brij35, 0.02 mg/mL BSA, 0.1 mM Na3VO4, 2 mM DTT, and 1% DMSO. All compounds were solubilized in DMSO. Compounds were then added to each reaction mixture via acoustic dispense using an ECHO 550 nanoliter dispenser. For human RAF1 testing, human MEK1 (K97R) was used as a substrate at a concentration of 3 micromolar, with a final ATP concentration of 10 micromolar. For human BRAF testing, human MEK1 (K97R) was used as a substrate at 1 micromolar concentration, with a final ATP concentration of 25 micromolar. […] After a 20-min incubation, ATP (Sigma-Aldrich, St. Louis, Mo. 63178) and [g33P] ATP (specific activity 10 microCi/microliter) purchased at PerkinElmer (Boston, Mass., 02118 Cat #BLU 003H250UC) were added at a final total concentration of […]. Reactions were carried out at room temperature for 2 hr and spotted onto P81 ion exchange cellulose chromatography paper (Reaction Biology). Filter paper was washed in 0.75% phosphoric acid to remove unincorporated ATP. The percent remaining kinase activity relative to a vehicle-containing (DMSO) kinase reaction was calculated for each kinase/inhibitor pair. IC50 values were calculated using Prism 5 (GraphPad).
In turn, `Cc1ccc(NC(=O)N2CC[C@@H](CC(F)(F)F)C2)cc1-c1cc(C(=O)NC[C@@H](C)O)nc(N2CCOCC2)c1` [Example 5, N-[(2R)-2-hydroxypropyl]-4-[2-methyl-5-[(3S)-3-(2,2,2-trifluoroethyl)pyrrolidine-1-carbonylamino]phenyl]-6-(morpholin-4-yl)pyridine-2-carboxamide] showed a pIC50 of 8.00 to 9.00.

Still in this assay, the particulars now being: human MEK1 (K97R) substrate 3 micromolar, ATP 10 micromolar; 10-dose, 3-fold serial dilution starting at 10 micromolar; read-out: RAF-1 IC50.
Consider `Cc1cc(F)c(NC(=O)N2CC[C@@H](C(F)(F)C(F)(F)F)C2)cc1-c1cc(-c2cnn(C)c2)nc(N2CCOCC2)c1` (single isomer, unassigned) [Example 80], for which the pIC50 is 8.00 to 9.00.

Turning to `Cc1cc(F)c(NC(=O)N2CC[C@H](C(F)(F)C(F)(F)F)C2)cc1-c1cc(-c2cnn(C)c2)nc(N2CCOCC2)c1` (single isomer, unassigned) [Example 81], the pIC50 was 8.00 to 9.00. In the case of `Cc1cc(F)c(NC(=O)N2CC[C@@H](C(C)(C)C)C2)cc1-c1cc(-c2cnn(C)c2)nc(N2CCOCC2)c1` (single isomer, unassigned) [Example 82], the pIC50 was 8.00 to 9.00.

In the case of `Cc1cc(F)c(NC(=O)N2CC[C@@H](C(C)(F)F)C2)cc1-c1cc(-c2cnn(C)c2)nc(N2CCOCC2)c1` (single isomer, unassigned) [Example 84], the pIC50 was above 9.00. As to `Cc1cc(-c2cc(NC(=O)N3CC[C@@H](CC(F)(F)F)C3)ccc2C)cc(N2CCOCC2)n1` [Example 1, (3S)—N-[4-methyl-3-[2-methyl-6-(morpholin-4-yl)pyridin-4-yl]phenyl]-3-(2,2,2-trifluoroethyl)pyrrolidine-1-carboxamide], the pIC50 is 8.00 to 9.00. Take `Cc1ccc(NC(=O)N2CC[C@@H](CC(F)(F)F)C2)cc1-c1cc(C(N)=O)nc(N2CCOCC2)c1` [Example 2, 4-[2-methyl-5-[(3S)-3-(2,2,2-trifluoroethyl)pyrrolidine-1-carbonylamino]phenyl]-6-(morpholin-4-yl)pyridine-2-carboxamide]: the pIC50 was 8.00 to 9.00.

For `CNC(=O)c1cc(-c2cc(NC(=O)N3CC[C@@H](CC(F)(F)F)C3)ccc2C)cc(N2CCOCC2)n1` [Example 3, N-methyl-4-[2-methyl-5-[(3S)-3-(2,2,2-trifluoroethyl)pyrrolidine-1-carbonylamino]phenyl]-6-(morpholin-4-yl)pyridine-2-carboxamide], the pIC50 was 8.00 to 9.00. Consider `Cc1ccc(NC(=O)N2CC[C@@H](CC(F)(F)F)C2)cc1-c1cc(C(=O)NCCO)nc(N2CCOCC2)c1` [Example 4, N-(2-hydroxyethyl)-4-[2-methyl-5-[(3S)-3-(2,2,2-trifluoroethyl)pyrrolidine-1-carbonylamino]phenyl]-6-(morpholin-4-yl)pyridine-2-carboxamide], for which the pIC50 was 8.00 to 9.00. With `Cc1ccc(NC(=O)N2CC[C@@H](CC(F)(F)F)C2)cc1-c1cc(C(=O)N[C@H](C)CO)nc(N2CCOCC2)c1` [Example 6, N-[(2R)-1-hydroxypropan-2-yl]-4-[2-methyl-5-[(3S)-3-(2,2,2-trifluoroethyl)pyrrolidine-1-carbonylamino]phenyl]-6-(morpholin-4-yl)pyridine-2-carboxamide], the pIC50 is 8.00 to 9.00. Regarding `Cc1ccc(NC(=O)N2CC[C@@H](CC(F)(F)F)C2)cc1-c1cc(C(=O)NC[C@H](C)O)nc(N2CCOCC2)c1` [Example 7, N-[(2S)-2-hydroxypropyl]-4-[2-methyl-5-[(3S)-3-(2,2,2-trifluoroethyl)pyrrolidine-1-carbonylamino]phenyl]-6-(morpholin-4-yl)pyridine-2-carboxamide], the pIC50 is above 9.00. On to `Cc1ccc(NC(=O)N2CC[C@@H](CC(F)(F)F)C2)cc1-c1cc(C(=O)N[C@@H](C)CO)nc(N2CCOCC2)c1` [Example 8, N-[(2S)-1-hydroxypropan-2-yl]-4-[2-methyl-5-[(3S)-3-(2,2,2-trifluoroethyl)pyrrolidine-1-carbonylamino]phenyl]-6-(morpholin-4-yl)pyridine-2-carboxamide], for which the negative logarithm of the IC50 (pIC50) was above 9.00. As to `Cc1ccc(NC(=O)N2CC[C@@H](CC(F)(F)F)C2)cc1-c1cc(C(=O)NCC(C)(C)O)nc(N2CCOCC2)c1` [Example 9, N-(2-hydroxy-2-methylpropyl)-4-[2-methyl-5-[(3S)-3-(2,2,2-trifluoroethyl)pyrrolidine-1-carbonylamino]phenyl]-6-(morpholin-4-yl)pyridine-2-carboxamide], the pIC50 is 8.00 to 9.00. In the case of `Cc1ccc(NC(=O)N2CC[C@@H](CC(F)(F)F)C2)cc1-c1cc(C#CC(C)(C)O)nc(N2CCOCC2)c1` [Example 10, (3S)—N-[3-[2-(3-hydroxy-3-methylbut-1-yn-1-yl)-6-(morpholin-4-yl)pyridin-4-yl]-4-methylphenyl]-3-(2,2,2-trifluoroethyl)pyrrolidine-1-carboxamide], the pIC50 is 8.00 to 9.00. As to `Cc1ccc(NC(=O)N2CC[C@@H](CC(F)(F)F)C2)cc1-c1cc(C#C[C@@H](C)O)nc(N2CCOCC2)c1` [Example 11, (3S)—N-(3-[2-[(3R)-3-hydroxybut-1-yn-1-yl]-6-(morpholin-4-yl)pyridin-4-yl]-4-methylphenyl)-3-(2,2,2-trifluoroethyl)pyrrolidine-1-carboxamide], the pIC50 was 8.00 to 9.00. Turning to `Cc1ccc(NC(=O)N2CC[C@@H](CC(F)(F)F)C2)cc1-c1cc(CC[C@@H](C)O)nc(N2CCOCC2)c1` [Example 12, (3S)—N-(3-[2-[(3R)-3-hydroxybutyl]-6-(morpholin-4-yl)pyridin-4-yl]-4-methylphenyl)-3-(2,2,2-trifluoroethyl)pyrrolidine-1-carboxamide], the pIC50 is above 9.00. On the same count and under the same terms, next, `Cc1ccc(NC(=O)N2CC[C@@H](CC(F)(F)F)C2)cc1-c1cc([C@@H]2C[C@@H]2CO)nc(N2CCOCC2)c1` [Example 13, (3S)—N-(3-[2-[(1R,2S)-2-(hydroxymethyl)cyclopropyl]-6-(morpholin-4-yl)pyridin-4-yl]-4-methylphenyl)-3-(2,2,2-trifluoroethyl)pyrrolidine-1-carboxamide]: above 9.00.

On to `Cc1ccc(NC(=O)N2CC[C@@H](CC(F)(F)F)C2)cc1-c1cc(-c2cn(C)nn2)nc(N2CCOCC2)c1` [Example 14, (S)—N-(4-methyl-3-(2-(1-methyl-1H-1,2,3-triazol-4-yl)-6-morpholinopyridin-4-yl)phenyl)-3-(2,2,2-trifluoroethyl)pyrrolidine-1-carboxamide], for which the pIC50 is 8.00 to 9.00. With `Cc1ccc(NC(=O)N2CC[C@@H](CC(F)(F)F)C2)cc1-c1cc(-c2cncs2)nc(N2CCOCC2)c1` [Example 15, (3S)—N-[4-methyl-3-[2-(morpholin-4-yl)-6-(1,3-thiazol-5-yl)pyridin-4-yl]phenyl]-3-(2,2,2-trifluoroethyl)pyrrolidine-1-carboxamide], the negative logarithm of the IC50 (pIC50) is 8.00 to 9.00. On the same count and under the same terms, for `Cc1ccc(NC(=O)N2CC[C@@H](CC(F)(F)F)C2)cc1-c1cc(-c2cncn2C)nc(N2CCOCC2)c1` [Example 16, (3S)—N-[4-methyl-3-[2-(3-methylimidazol-4-yl)-6-(morpholin-4-yl)pyridin-4-yl]phenyl]-3-(2,2,2-trifluoroethyl)pyrrolidine-1-carboxamide] the value was 8.00 to 9.00; for `Cc1ccc(NC(=O)N2CC[C@@H](CC(F)(F)F)C2)cc1-c1cc(/C=C/[C@@H](C)O)nc(N2CCOCC2)c1` [Example 17, (3S)—N-(3-[2-[(1E,3R)-3-hydroxybut-1-en-1-yl]-6-(morpholin-4-yl)pyridin-4-yl]-4-methylphenyl)-3-(2,2,2-trifluoroethyl)pyrrolidine-1-carboxamide], 8.00 to 9.00. For `Cc1ccc(NC(=O)N2CC[C@@H](CC(F)(F)F)C2)cc1-c1cc(C(=O)N(C)CCO)nc(N2CCOCC2)c1` [Example 18, N-(2-hydroxyethyl)-N-methyl-4-[2-methyl-5-[(3S)-3-(2,2,2-trifluoroethyl)pyrrolidine-1-carbonylamino]phenyl]-6-(morpholin-4-yl)pyridine-2-carboxamide], the pIC50 was above 9.00.

With `Cc1ccc(NC(=O)N2CC[C@@H](CC(F)(F)F)C2)cc1-c1cc(C(=O)N2CC(O)C2)nc(N2CCOCC2)c1` [Example 20, (3S)—N-[3-[2-(3-hydroxyazetidine-1-carbonyl)-6-(morpholin-4-yl)pyridin-4-yl]-4-methylphenyl]-3-(2,2,2-trifluoroethyl)pyrrolidine-1-carboxamide], the pIC50 is above 9.00.

In the case of `Cc1ccc(NC(=O)N2CC[C@@H](CC(F)(F)F)C2)cc1-c1cc(C(=O)N2CC(C)(O)C2)nc(N2CCOCC2)c1` [Example 21, (3S)—N-[3-[2-(3-hydroxy-3-methylazetidine-1-carbonyl)-6-(morpholin-4-yl)pyridin-4-yl]-4-methylphenyl]-3-(2,2,2-trifluoroethyl)pyrrolidine-1-carboxamide], the pIC50 is above 9.00. On the same count and under the same terms, next, `Cc1ccc(NC(=O)N2CC[C@@H](CC(F)(F)F)C2)cc1-c1cc(-c2cnn(C)c2)nc(N2CCOCC2)c1` [Example 22, (3S)—N-[4-methyl-3-[2-(1-methylpyrazol-4-yl)-6-(morpholin-4-yl)pyridin-4-yl]phenyl]-3-(2,2,2-trifluoroethyl)pyrrolidine-1-carboxamide]: above 9.00.

Broadly, the pIC50 is −log10 of the IC50, conventionally taken in molar units.
